Measured values taken from ChEMBL document CHEMBL5727277, “Heteroarylcarboxamide derivatives as plasma kallikrein inhibitors” (2019).

Target: Plasma kallikrein (Homo sapiens, UniProt P03952)
Assay: Subsequently, PPACK II (Calbiochem) was added as a stop solution to achieve a final concentration of 1 μM and fluorescence was measured using an Envision Reader (PerkinElmer) with the wavelength excitation setting of 355 nm and the wavelength emission setting of 460 nm.Evaluation of the Inhibition of Human KLKB1 in Dextransulfat Activated Human PPP.Platelet poor plasma (PPP) obtained from human wholeblood, anticoagulated with EDTA, was activated with 12.5 μg/mL dextransulfate for 7 min on ice. The activated PPP was incubated with various concentrations of the test compound in assay buffer. […] Measurements were performed in a kinetic interval every 2nd minute for 16 min using a Spectramax M5 (Molecular Devices) with the following settings of the wavelength excitation of 350 nm and wavelength emission of 450 nm.

Sequence of Plasma kallikrein (P03952 20-390 limits assumed): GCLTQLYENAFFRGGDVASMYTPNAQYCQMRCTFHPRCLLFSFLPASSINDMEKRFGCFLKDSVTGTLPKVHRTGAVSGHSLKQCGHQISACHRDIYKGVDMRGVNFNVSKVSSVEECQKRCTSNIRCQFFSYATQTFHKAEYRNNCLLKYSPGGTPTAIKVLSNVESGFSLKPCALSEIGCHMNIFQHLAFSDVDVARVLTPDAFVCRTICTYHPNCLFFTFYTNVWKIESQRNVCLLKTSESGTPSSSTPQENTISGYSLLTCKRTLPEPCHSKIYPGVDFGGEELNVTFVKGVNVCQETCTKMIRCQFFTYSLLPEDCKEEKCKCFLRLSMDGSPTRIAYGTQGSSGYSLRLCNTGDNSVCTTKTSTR
Sequence of Plasma kallikrein (P03952 391-638 limits assumed): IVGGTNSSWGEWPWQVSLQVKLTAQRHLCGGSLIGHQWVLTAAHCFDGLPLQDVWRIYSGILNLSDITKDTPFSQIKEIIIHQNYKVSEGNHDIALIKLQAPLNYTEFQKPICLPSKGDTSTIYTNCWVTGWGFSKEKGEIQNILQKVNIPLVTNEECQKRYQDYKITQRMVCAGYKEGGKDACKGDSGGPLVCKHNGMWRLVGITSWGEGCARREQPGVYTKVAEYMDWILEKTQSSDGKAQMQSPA

IC50 [nM]	Compound
1900	Cc1ccc2cc(Cn3cc(C(=O)N[C@H]4CCc5c4ccnc5N)nn3)ccc2n1
36	Cc1ccc2cc(Cn3cc(C(=O)N[C@@H]4CCc5c4ccnc5N)nn3)ccc2n1
